Entries after “also recorded” stand apart in the source; their conditions may differ. Like-named read-outs stand apart in the source and are kept apart here.
What was measured:
[1] = target: T1, hCAR LBD (Homo sapiens, UniProt Q14994); experiment: Scintillation proximity binding assay with [3H]clotrimazole; conditions: 10 nM [3H]clotrimazole, 10 μM competitor
T1 construct: or 103-348 of hCAR; made in house; host or cells: E. coli BL21(DE3), pRSETa
T1 sequence (Q14994 103-348 isoform Q14994-2): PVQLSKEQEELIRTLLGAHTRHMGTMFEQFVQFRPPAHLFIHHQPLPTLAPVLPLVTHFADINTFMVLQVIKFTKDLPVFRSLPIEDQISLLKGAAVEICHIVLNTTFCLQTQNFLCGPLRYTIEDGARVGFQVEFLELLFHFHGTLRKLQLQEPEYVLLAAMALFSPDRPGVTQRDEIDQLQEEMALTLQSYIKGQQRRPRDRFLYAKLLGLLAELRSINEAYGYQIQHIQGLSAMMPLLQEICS
Description: Scintillation proximity binding assay. Streptavidin polyvinyltoluene SPA beads (Amersham Pharmacia Biotech) were resuspended in assay buffer (50 mM Tris, 50 mM KCl, 1 mM CHAPS, 0.1 mg/ml BSA, 10 mM DTT). Biotinylated hCAR LBD was added to a final concentration of 50 nM. The amount of biotinylated receptor can be varied to account for variations in the extent of biotinylation and/or the observed S/N ratio for different batches of receptor. […] The receptor/bead mixture was allowed to incubate at room temperature for 15 min with gentle agitation. Uncoupled receptor was removed by centrifuging the receptor/bead mixture at 2500 rpm for 10 min and pouring off the supernatant. Receptor-coupled beads were resuspended in assay buffer and a second wash performed. All experiments were run in Costar 96-well SPA plates using an assay volume of 100 μl.

[2] = target: T2, human CAR (hCAR) (Homo sapiens, UniProt Q14994); conditions: for EC50: read-out: EC50 values for activation/deactivation of CAR, HCAR, transfected CV-1 cells, 0.0001 μM to 10 μM in half-log steps, EC50 given only for ≧ 2-fold activation or deactivation relative to basal activity
T2 sequence (Q14994 1-348 isoform Q14994-2): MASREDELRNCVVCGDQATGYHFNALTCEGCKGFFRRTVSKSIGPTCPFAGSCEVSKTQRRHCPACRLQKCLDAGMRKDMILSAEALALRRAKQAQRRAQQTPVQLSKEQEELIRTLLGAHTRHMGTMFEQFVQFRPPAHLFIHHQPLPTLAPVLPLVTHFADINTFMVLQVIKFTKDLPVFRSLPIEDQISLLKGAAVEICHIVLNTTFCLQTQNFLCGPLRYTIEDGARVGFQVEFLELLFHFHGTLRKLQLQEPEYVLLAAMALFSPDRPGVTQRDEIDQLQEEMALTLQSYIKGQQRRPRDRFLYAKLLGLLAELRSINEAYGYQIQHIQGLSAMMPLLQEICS

[3] = target: T3, mouse CAR (mCAR) (Mus musculus, UniProt O35627)
T3 sequence (O35627 1-358): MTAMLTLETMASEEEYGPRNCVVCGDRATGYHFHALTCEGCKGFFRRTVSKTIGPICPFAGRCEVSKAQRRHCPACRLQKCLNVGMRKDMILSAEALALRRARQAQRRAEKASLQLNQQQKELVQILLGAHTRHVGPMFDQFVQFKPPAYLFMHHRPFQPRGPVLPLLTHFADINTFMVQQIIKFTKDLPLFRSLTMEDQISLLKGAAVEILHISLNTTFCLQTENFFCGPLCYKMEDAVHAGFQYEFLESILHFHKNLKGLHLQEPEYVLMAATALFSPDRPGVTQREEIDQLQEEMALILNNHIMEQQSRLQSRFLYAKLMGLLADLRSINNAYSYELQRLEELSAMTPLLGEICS

[4] = target: T2, human CAR (hCAR); experiment: in vitro
[5] = target: T3, mouse CAR (mCAR); experiment: in vitro
[6] = target: T4, hCAR/SRC-1 interaction (Homo sapiens, UniProt Q14994); experiment: FRET ligand sensing assay, hCAR LBD with SRC-1 LXXLL peptide; format: biochemical; conditions: SRC-1 peptide amino acids 676 to 700
T4 construct: or 103-348 of hCAR; made in house; host or cells: E. coli BL21(DE3), pRSETa
T4 sequence (Q14994 103-348 isoform Q14994-2): T1 sequence (Q14994 103-348 isoform Q14994-2)
Description: The mCAR and hCAR LBD were each expressed in E. coli strain BL21(DE3) as a polyhistidine-tagged fusion protein. […] Cells were lysed by passing 3 times through an APV Rannie MINI-lab homogenizer and cell debris was removed by centrifugation (30 minutes, 20,000 g, 4° C.). After adjusting the imidazole concentration to 50 mM, the lysate was loaded onto a column packed with Sepharose [Ni^++ charged] Chelation resin (Pharmacia) and pre-equilibrated with TBS pH 8.0/50 mM imidazole. […] The recombinant protein was eluted with a gradient from 50 to 500 mM imidazole. Column peak fractions were pooled immediately and diluted 5-7 fold with 25 mM Tris pH 8.0, containing 5% 1,2-propanediol, 0.5 mM EDTA and 5 mM DTT. The diluted protein sample was then loaded onto a column packed with Poros HQ resin (PerSeptive Biosystems) and eluted with a gradient from 0-500 mM NaCl. Peak fractions were pooled and concentrated using Centri-prep 10K (Amicon) and subjected to size exclusion, using a column packed with Superdex-75 resin (Pharmacia) pre-equilibrated with TBS, pH 8.0, containing 5% 1,2-propanediol, 0.5 mM EDTA and 5 mM DTT.
The purified CAR LBDs were desalted/buffer exchanged using PD-10 gel filtration columns into PBS [100 mM NaPhosphate, pH 7.2, 150 mM NaCl]. […]
Fluorescence resonance energy transfer (FRET) ligand sensing assay. […]

[7] = target: T2, human CAR (hCAR); experiment: cell-based
[8] = read-out: EC50 values for activation/deactivation of CAR, mCAR, transfected CV-1 cells, 0.0001 μM to 10 μM in half-log steps, EC50 given only for ≧ 2-fold activation or deactivation relative to basal activity
[9] = CV-1 cells, PB tested at 0.5 mM (high concentrations)

CCOP(=O)(OCC)C(=Cc1cc(C(C)(C)C)c(O)c(C(C)(C)C)c1)P(=O)(OCC)OCC [SR12813]
competition with [3H]clotrimazole for binding to hCAR (in words) [1]: did not compete | effect on hCAR reporter activity (in words) ([2]; CV-1 cells, screened at 10 μM): little or no effect; also recorded: little or no activity | EC50 [2]: > 10 µM | effect on mCAR reporter activity (in words) ([3]; CV-1 cells, screened at 10 μM): little or no effect | EC50 [3, 8]: > 10 µM

CC#C[C@]1(O)CC[C@H]2[C@@H]3CCC4=CC(=O)CCC4=C3[C@@H](c3ccc(N(C)C)cc3)C[C@@]21C [RU486]
EC50 at 24 h [4]: > 10 µM | EC50 at 24 h [5]: > 10 µM

CC(=O)[C@H]1CC[C@H]2[C@@H]3CC[C@@H]4CC(=O)CC[C@]4(C)[C@H]3CC[C@]12C [5β-pregnane-3,20-dione]
effect on hCAR LBD/SRC-1 interaction (in words) [6]: marked increase in the binding of SRC-1 to hCAR | competition with [3H]clotrimazole for binding to hCAR (in words) [1]: competed efficiently | activation of hCAR ([2]; CV-1 cells, relative to basal activity): ~2 fold | effect on mCAR reporter activity (in words) ([3]; CV-1 cells, screened at 10 μM): only weak effects | EC50 at 24 h [5]: > 10 µM | EC50 [7]: 0.67 µM

Clc1cnc(Oc2ccc(Oc3ncc(Cl)cc3Cl)cc2)c(Cl)c1 [TCPOBOP, 1,4-bis[2-(3,5-dichloropyridyloxy)]benzene]
competition with [3H]clotrimazole for binding to hCAR (in words) [1]: did not compete | effect on hCAR reporter activity (in words) ([2]; CV-1 cells, screened at 10 μM): virtually no activity; also recorded: little or no activity | EC50 [2]: > 10 µM | effect on mCAR reporter activity (in words) ([3]; CV-1 cells, screened at 10 μM): efficacious activator of mCAR | EC50 ([3]; read-out: EC50 for activation of mCAR, CV-1 cells): ~0.1 µM | EC50 [3, 8]: 0.1 µM

Clc1ccccc1C(c1ccccc1)(c1ccccc1)n1ccnc1 [clotrimazole]
effect on hCAR reporter activity (in words) ([2]; CV-1 cells, screened at 10 μM): efficacious deactivator of hCAR

CCC1(c2ccccc2)C(=O)NC(=O)NC1=O [PB, phenobarbital]
effect on hCAR reporter activity (in words) [2, 9]: weak but reproducible deactivation; also recorded: deactivated hCAR | effect on mCAR reporter activity (in words) [3, 9]: weak but reproducible deactivation

C[C@@H]1C[C@H]2[C@@H]3CCC4=CC(=O)C=C[C@]4(C)[C@@]3(F)[C@@H](O)C[C@]2(C)[C@@]1(O)C(=O)CO [dexamethasone]
EC50 at 24 h [4]: > 10 µM | EC50 at 24 h [5]: > 10 µM

C[C@@]12CCC[C@H]1[C@@H]1CC[C@H]3C[C@@H](O)CC[C@]3(C)[C@H]1CC2 [androstanol]
effect on hCAR LBD/SRC-1 interaction (in words) [6]: disrupted this interaction | competition with [3H]clotrimazole for binding to hCAR (in words) [1]: competed efficiently | effect on hCAR reporter activity (in words) ([2]; CV-1 cells, screened at 10 μM): deactivated hCAR, though the effect was not nearly as pronounced as on mCAR | EC50 [2]: > 10 µM | effect on mCAR reporter activity (in words) ([3]; CV-1 cells, screened at 10 μM): efficacious deactivator of mCAR | EC50 [3, 8]: 0.84 µM
